The supplement of paper PMC13380429

Columns and labels:
Conditions in all cases: 72 h
[1] = tested on: U2OS; test: relative viability EC50 (midpoint between 100% and the lowest measured viability); higher = less toxic
[2] = tested on: Calu-3; test: as above
[3] = tested on: Caco-2; test: as above
[4] = tested on: HepG2; test: as above
[5] = tested on: Vero E6; test: as above
[6] = tested on: U2OS; test: cell viability relative to DMSO; higher = less toxic
[7] = tested on: Calu-3; test: as above
[8] = tested on: Caco-2; test: as above
[9] = tested on: HepG2; test: as above
[10] = tested on: Vero E6; test: as above
[11] = tested on: U2OS; test: drug sensitivity score (DSS) for viability; higher = more toxic; extreme values may be limits of the assay
[12] = tested on: Calu-3; test: as above
[13] = tested on: Caco-2; test: as above
[14] = tested on: HepG2; test: as above
[15] = tested on: Vero E6; test: as above

Structure (SMILES)	relative viability EC50 [1]	relative viability EC50 [2]	relative viability EC50 [3]	relative viability EC50 [4]	relative viability EC50 [5]	cell viability ([6]; 1 nM)	cell viability ([6]; 10 nM)	cell viability ([6]; 100 nM)	cell viability ([6]; 1000 nM)	cell viability ([6]; 10000 nM)	cell viability ([7]; 1 nM)	cell viability ([7]; 10 nM)	cell viability ([7]; 100 nM)	cell viability ([7]; 1000 nM)	cell viability ([7]; 10000 nM)	cell viability ([8]; 1 nM)	cell viability ([8]; 10 nM)	cell viability ([8]; 100 nM)	cell viability ([8]; 1000 nM)	cell viability ([8]; 10000 nM)	cell viability ([9]; 1 nM)	cell viability ([9]; 10 nM)	cell viability ([9]; 100 nM)	cell viability ([9]; 1000 nM)	cell viability ([9]; 10000 nM)	cell viability ([10]; 1 nM)	cell viability ([10]; 10 nM)	cell viability ([10]; 100 nM)	cell viability ([10]; 1000 nM)	cell viability ([10]; 10000 nM)	drug sensitivity score [11]	drug sensitivity score [12]	drug sensitivity score [13]	drug sensitivity score [14]	drug sensitivity score [15]
N#CN=C(NCCCCCCOc1ccc(Cl)cc1)Nc1ccncc1 [GMX1778]	0.0363 µM	0.0356 µM	0.0332 µM	0.0058 µM	0.326 µM	102%	110%	0.1%	-0.3%	-0.5%	104%	102%	7.1%	4.8%	3.9%	104%	102%	3.2%	3.5%	3.2%	109%	26%	19.5%	16.3%	8.4%	98.3%	99%	101%	1.7%	1.2%	29.7	28.8	29.3	36.6	17.6
Nc1ccc(S(=O)(=O)c2ccc(N)cc2)cc1 [dapsone]	> 10 µM	> 10 µM	> 10 µM	> 10 µM	> 10 µM	99.3%	97.1%	95.8%	96.2%	100%	104%	98.6%	90.4%	106%	101%	106%	95.6%	104%	100%	91.7%	112%	107%	93.2%	106%	96.6%	98.5%	106%	105%	106%	100%	0	0	0	0	0
O=C(Nc1ccccc1)N[C@H]1C[C@H](C(=O)O)Nc2cc(Cl)cc(Cl)c21	> 10 µM	> 10 µM	> 10 µM	> 10 µM	> 10 µM	98%	104%	103%	105%	100%	105%	89.8%	108%	95.8%	97.1%	98.1%	104%	104%	104%	92.5%	96.4%	103%	96.3%	84.6%	104%	106%	100%	100%	96.7%	99.8%	0	0	0	0	0
CCOC(=O)[C@H](CCc1ccccc1)N[C@@H](C)C(=O)N1C(=O)N(C)C[C@H]1C(=O)O [imidapril]	> 10 µM	> 10 µM	> 10 µM	> 10 µM	> 10 µM	101%	93.4%	97.7%	95.7%	102%	98.5%	96.4%	99.8%	97.5%	96.8%	95.1%	87.8%	93.9%	97.6%	97.8%	94.6%	103%	104%	113%	104%	104%	98.3%	98.1%	101%	99.9%	0	0	0	0	0
Nc1nc(=O)n([C@@H]2O[C@H](CO)[C@@H](O)[C@@H]2F)cc1I [fiacitabine]	> 10 µM	> 10 µM	> 10 µM	> 10 µM	> 10 µM	99.8%	104%	93.6%	98.6%	100%	93.1%	102%	102%	109%	96%	93.8%	99.5%	90.1%	84.3%	93.2%	104%	91.4%	96.1%	106%	83.6%	98.9%	97.6%	98.9%	100%	96.7%	0	0	0.2	0.2	0
